Test results taken from patent publication US4061767A, “Cyano acetic acid anilide derivatives, process for their manufacture and compositions containing these compounds” (Hoechst Aktiengesellschaft, priority 1975, dated 1977).

Tests used:
in vivo [1] = conditions: rat, po, per os, observation time 7 days
Source text: ^1) Limits of confidence for p = 0.05 in brackets
^2) Sprague-Dawley rats used as test animals

writhing = writhing test on mice (analgesic effect); type: in vivo; conditions: Mus musculus, po, per os, dosis that reduces the number of writhings by 50% vs control
Experimental: (§1) The ED50 levels were determined graphically on probability paper. In the writhing test, the ED50 is defined to be the dosis of active ingredient that reduces the number of writhings by 50% as compared with a control group. In the adjuvant arthritis test, the effect was judged by observing the inhibition in the secondary lesions, which the animals inflicted to their ears, paws and tails, on the 17th day after the administration of the active substance compositions had started, in comparison with a control group. ED50 is considered the dosis that reduces these lesions by 50% as compared to those of the control group.

in vivo [2] = assay: in vivo; parameters: species or system male rats of a Sprague-Dawley strain; conditions: rat, po
Experimental: To examine the ulcerogenic activity, the substances to be tested were orally administered to male rats of a Sprague-Dawley strain, that had been kept unfed for 18 hours, and 24 hours after administration, the gastrointestinal tract of the animals was inspected for ulcers.

in vivo [3] = conditions: mouse, po, per os, N.M.R.I. mice, observation time 7 days
adjuvant arthritis = adjuvant arthritis in rats (anti-inflammatory effect); type: in vivo; conditions: Rattus norvegicus, po, 408 h, per os, 50% reduction of secondary lesions on the 17th day vs control
Experimental: as §1

Q: Which LD50 at 168 h (in vivo [1]; female Wistar-Lewis rats) does the source give for CC(O)=C(C#N)C(=O)Nc1cccc(Cl)c1 [No. 2] here?
A: The LD50 at 168 h was 445 mg/kg.

Q: What about the ED50 (writhing) of the same compound?
A: The ED50 was roughly 25 mg/kg.

Q: And the NOAEL at 24 h (in vivo [2])?
A: Its NOAEL at 24 h is 200 mg/kg.

Q: And the LD50 at 168 h (in vivo [3])?
A: The LD50 at 168 h was 585 mg/kg.

Q: And the ED50 (adjuvant arthritis)?
A: Its ED50 is 22 mg/kg.

Q: With CCCCC1C(=O)N(c2ccccc2)N(c2ccccc2)C1=O [Phenylbutazone, phenylbutazone, reference compound] as the compound, how does the ED50 (writhing) read?
A: The ED50 was 60 to 100 mg/kg.

Q: And the NOAEL at 24 h (in vivo [2])?
A: Its NOAEL at 24 h is 63 mg/kg.

Q: What about the ED50 (adjuvant arthritis) of the same compound?
A: The ED50 was 37 mg/kg.

Q: Which LD50 at 168 h (in vivo [1]; Sprague-Dawley rats used as test animals (footnote 2)) does the source give for CC(O)=C(C#N)C(=O)Nc1cccc(C(F)(F)F)c1 [compound 11] here?
A: Its LD50 at 168 h is 670 mg/kg.

Q: What about the ED50 (writhing) of the same compound?
A: The ED50 was 25 mg/kg.

Q: What about the NOAEL at 24 h (in vivo [2]) of the same compound?
A: The NOAEL at 24 h was 100 mg/kg.

Q: And the LD50 at 168 h (in vivo [3])?
A: The LD50 at 168 h was 660 mg/kg.

Q: And the ED50 (adjuvant arthritis)?
A: Its ED50 is 28 mg/kg.
